Data as given in US20230416232A1, “PYRIMIDINE COMPOUNDS, COMPOSITIONS, AND MEDICINAL APPLICATIONS THEREOF” (Blueprint Medicines Corporation, priority 2020, published 2023).
Like-named read-outs stand apart in the source and are kept apart here.

Tests used:
Assay type in all cases: cell-based
[1] = target: EGFR(D770_N771insSVD) expressing Ba/F3 stable cell line (Homo sapiens, UniProt P00533, DUP768-770, cells depend on it); assay: Cellular proliferation (Alamar Blue) assay, EGFR(D770_N771insSVD) Ba/F3; details: 72 hr, read-out: D770 IC50
Chain of EGFR(D770_N771insSVD) expressing Ba/F3 stable cell line (P00533 with tags, fused parts or gaps DUP768-770): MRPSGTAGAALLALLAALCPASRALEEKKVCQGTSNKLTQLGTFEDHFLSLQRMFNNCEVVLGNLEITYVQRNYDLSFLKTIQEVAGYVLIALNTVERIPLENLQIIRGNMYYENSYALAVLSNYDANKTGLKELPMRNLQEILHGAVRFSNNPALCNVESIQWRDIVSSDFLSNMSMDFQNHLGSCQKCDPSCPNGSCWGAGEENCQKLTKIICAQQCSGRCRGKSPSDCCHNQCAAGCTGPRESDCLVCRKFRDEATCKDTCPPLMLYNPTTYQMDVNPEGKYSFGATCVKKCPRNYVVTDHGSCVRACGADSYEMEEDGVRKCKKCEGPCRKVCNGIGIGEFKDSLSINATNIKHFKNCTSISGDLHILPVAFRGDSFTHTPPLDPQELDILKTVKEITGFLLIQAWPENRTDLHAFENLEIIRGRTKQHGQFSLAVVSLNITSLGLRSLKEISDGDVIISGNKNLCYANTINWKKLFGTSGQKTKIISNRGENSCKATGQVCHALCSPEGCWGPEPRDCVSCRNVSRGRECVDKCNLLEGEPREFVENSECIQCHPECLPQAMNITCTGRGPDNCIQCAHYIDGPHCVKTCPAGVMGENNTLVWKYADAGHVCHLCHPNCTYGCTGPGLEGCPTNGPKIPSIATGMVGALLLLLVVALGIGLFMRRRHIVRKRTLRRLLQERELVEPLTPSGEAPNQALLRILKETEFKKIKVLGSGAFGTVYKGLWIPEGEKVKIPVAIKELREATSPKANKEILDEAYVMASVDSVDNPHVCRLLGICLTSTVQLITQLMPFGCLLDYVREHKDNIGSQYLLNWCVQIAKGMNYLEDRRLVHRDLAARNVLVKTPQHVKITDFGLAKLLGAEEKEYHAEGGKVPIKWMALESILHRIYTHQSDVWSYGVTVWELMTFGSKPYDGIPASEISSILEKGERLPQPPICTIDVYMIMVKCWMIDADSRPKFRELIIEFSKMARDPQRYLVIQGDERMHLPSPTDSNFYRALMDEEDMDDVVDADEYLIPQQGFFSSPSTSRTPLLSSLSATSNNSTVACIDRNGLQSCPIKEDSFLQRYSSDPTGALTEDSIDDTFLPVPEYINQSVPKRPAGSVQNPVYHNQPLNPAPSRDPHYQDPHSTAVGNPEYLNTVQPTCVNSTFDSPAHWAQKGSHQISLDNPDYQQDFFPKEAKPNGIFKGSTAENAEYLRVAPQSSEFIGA
How it was run: (§1)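 Compound exposure lasted 72 h at 37 °C over a final 10–0.0005 μM range in 3-fold steps, with viability read by Alamar Blue after a further 3 h. Ba/F3 mutant lines were plated at 15,000 cells/well in RPMI/10% FBS, A431 at 5000/well in DMEM/10% FBS, 16–18 h beforehand.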

[2] = target: EGFR (A767_dupASV) expressing Ba/F3 stable cell line (Homo sapiens, UniProt P00533, DUP767-769, cells depend on it); assay: Cellular proliferation (Alamar Blue) assay, EGFR (A767_dupASV) Ba/F3; details: 72 hr, read-out: A767 IC50
Chain of EGFR (A767_dupASV) expressing Ba/F3 stable cell line (P00533 with tags, fused parts or gaps DUP767-769): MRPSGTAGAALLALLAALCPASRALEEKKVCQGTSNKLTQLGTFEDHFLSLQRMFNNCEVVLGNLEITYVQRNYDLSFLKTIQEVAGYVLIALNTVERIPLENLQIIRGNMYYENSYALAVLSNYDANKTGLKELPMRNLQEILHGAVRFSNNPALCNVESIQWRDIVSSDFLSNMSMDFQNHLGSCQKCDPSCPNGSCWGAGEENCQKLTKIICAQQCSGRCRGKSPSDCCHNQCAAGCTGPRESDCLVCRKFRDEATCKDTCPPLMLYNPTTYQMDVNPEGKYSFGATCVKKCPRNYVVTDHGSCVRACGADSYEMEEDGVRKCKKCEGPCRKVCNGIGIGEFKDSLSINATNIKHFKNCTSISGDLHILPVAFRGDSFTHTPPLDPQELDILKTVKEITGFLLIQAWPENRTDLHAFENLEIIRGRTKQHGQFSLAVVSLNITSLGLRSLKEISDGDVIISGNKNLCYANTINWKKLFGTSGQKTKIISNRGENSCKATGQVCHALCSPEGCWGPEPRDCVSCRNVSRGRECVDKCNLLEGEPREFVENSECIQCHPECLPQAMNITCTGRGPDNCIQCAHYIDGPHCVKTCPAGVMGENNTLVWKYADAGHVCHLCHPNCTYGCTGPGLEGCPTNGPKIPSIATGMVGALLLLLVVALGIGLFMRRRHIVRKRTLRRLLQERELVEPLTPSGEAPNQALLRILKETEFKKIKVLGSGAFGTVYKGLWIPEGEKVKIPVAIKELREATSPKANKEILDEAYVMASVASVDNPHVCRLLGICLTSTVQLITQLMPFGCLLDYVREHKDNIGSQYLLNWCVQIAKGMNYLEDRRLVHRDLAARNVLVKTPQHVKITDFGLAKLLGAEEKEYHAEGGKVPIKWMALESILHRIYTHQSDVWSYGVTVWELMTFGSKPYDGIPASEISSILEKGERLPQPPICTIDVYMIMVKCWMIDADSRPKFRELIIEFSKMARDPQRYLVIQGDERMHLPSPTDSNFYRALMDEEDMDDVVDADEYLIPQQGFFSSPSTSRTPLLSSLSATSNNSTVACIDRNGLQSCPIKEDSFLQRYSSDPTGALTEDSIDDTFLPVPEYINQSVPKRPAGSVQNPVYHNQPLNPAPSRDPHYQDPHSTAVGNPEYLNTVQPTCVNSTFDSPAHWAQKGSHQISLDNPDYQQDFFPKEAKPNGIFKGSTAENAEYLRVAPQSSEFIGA
How it was run: as §1

A431 cells = assay: Cellular proliferation (Alamar Blue) assay, A431 cells; details: A431 cells, 72 hr, Alamar Blue, read-out: A431 IC50
How it was run: as §1

[3] = target: HER2 (A775_G776insYVMA) expressing Ba/F3 stable cell line (Homo sapiens, UniProt P04626, DUP772-775, cells depend on it); assay: Cellular proliferation (Alamar Blue) assay, HER2 (A775_G776insYVMA) Ba/F3; details: HER2 (A775_G776insYVMA) Ba/F3 cells; 72 hr; Alamar Blue; read-out: YVMA IC50
Chain of HER2 (A775_G776insYVMA) expressing Ba/F3 stable cell line (P04626 with tags, fused parts or gaps DUP772-775): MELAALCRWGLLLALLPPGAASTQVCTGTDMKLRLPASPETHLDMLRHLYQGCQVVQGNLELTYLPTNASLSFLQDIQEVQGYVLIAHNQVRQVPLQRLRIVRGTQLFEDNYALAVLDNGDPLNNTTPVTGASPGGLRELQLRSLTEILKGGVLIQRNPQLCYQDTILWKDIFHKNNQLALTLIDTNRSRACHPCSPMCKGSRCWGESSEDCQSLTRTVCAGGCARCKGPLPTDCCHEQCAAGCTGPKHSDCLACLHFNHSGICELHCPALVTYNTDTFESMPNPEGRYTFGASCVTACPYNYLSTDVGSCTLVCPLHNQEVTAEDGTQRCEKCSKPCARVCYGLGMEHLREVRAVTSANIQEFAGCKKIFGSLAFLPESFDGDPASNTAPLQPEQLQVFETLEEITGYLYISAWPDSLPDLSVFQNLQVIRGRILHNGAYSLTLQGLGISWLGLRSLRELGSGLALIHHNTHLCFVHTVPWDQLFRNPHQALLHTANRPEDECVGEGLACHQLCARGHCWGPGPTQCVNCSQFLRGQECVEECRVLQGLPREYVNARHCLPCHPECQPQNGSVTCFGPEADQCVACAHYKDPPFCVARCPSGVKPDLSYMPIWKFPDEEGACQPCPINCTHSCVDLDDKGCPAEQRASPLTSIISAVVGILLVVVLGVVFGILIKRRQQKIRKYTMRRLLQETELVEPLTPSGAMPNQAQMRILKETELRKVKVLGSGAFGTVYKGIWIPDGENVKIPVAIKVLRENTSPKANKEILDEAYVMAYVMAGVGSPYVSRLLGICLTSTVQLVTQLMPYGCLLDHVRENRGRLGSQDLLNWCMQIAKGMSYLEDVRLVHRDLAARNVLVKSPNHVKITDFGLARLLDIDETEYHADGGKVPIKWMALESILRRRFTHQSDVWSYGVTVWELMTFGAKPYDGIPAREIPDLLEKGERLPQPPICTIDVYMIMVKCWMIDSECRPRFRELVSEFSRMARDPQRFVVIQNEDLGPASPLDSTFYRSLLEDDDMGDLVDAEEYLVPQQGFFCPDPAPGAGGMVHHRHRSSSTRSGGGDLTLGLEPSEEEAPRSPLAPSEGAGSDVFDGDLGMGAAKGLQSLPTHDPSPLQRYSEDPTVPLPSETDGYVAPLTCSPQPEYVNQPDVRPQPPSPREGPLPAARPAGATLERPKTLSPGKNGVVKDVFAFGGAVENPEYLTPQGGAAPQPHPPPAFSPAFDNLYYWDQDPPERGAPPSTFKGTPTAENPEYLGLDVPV
How it was run: as §1

Row | SMILES | GI50 [1] [nM] | GI50 [2] [nM] | IC50 (A431 cells; Homo sapiens, A-431, 72 h) [nM] | GI50 [3] [nM] | IC50 (A431 cells) [nM]
1 | [2H]C([2H])=CC(=O)Nc1ccc(F)c(Nc2nc(Nc3cnn(C)c3)ncc2-c2ccc(Br)c(F)c2)c1 [Compound 102, N-(3-((5-(4-bromo-3-fluorophenyl)-2-((1-methyl-1H-pyrazol-4-yl)amino)pyrimidin-4-yl)amino)-4-fluorophenyl)acrylamide-3,3-d2] | 35 | 30 | 69 | 117 | –
2 | C=CC(=O)Nc1ccc(F)c(Nc2nc(Nc3cnn(C)c3)ncc2-c2cc(F)cc(OC(F)(F)F)c2)c1 [Compound 172, N-(4-fluoro-3-((5-(3-fluoro-5-(trifluoromethoxy)phenyl)-2-((1-methyl-1H-pyrazol-4-yl)amino)pyrimidin-4-yl)amino)phenyl)acrylamide] | 843 | 967 | 585 | 5980 | –
3 | C=CC(=O)Nc1ccc(F)c(Nc2nc(Nc3cnn(CCOC)c3)ncc2-c2ccc(Br)c(F)c2)c1 [Compound 95, N-(3-((5-(4-bromo-3-fluorophenyl)-2-((1-(2-methoxyethyl)-1H-pyrazol-4-yl)amino)pyrimidin-4-yl)amino)-4-fluorophenyl)acrylamide] | 29 | 43 | 4770 | 197 | –
4 | CN(C)C/C=C/C(=O)Nc1ccc(F)c(Nc2nc(Nc3cnn(C)c3)ncc2-c2cc(F)c(Br)c(F)c2)c1 [Compound 171, (E)-N-(3-((5-(4-bromo-3,5-difluorophenyl)-2-((1-methyl-1H-pyrazol-4-yl)amino)pyrimidin-4-yl)amino)-4-fluorophenyl)-4-(dimethylamino)but-2-enamide] | 79 | 99 | 57 | 113 | –
5 | C=CC(=O)Nc1cc(Br)cc(Nc2nc(Nc3cnn(C)c3)ncc2-c2cc(F)cc(C(F)F)c2)c1 [Compound 174, N-(3-bromo-5-((5-(3-(difluoromethyl)-5-fluorophenyl)-2-((1-methyl-1H-pyrazol-4-yl)amino)pyrimidin-4-yl)amino)phenyl)acrylamide] | 42 | 120 | 358 | 759 | –
6 | Cn1cc(Nc2ncc(-c3ccc(Br)c(F)c3)c(Nc3cc(NC(=O)/C=C/CF)ccc3F)n2)cn1 [Compound 175, (E)-N-(3-((5-(4-bromo-3-fluorophenyl)-2-((1-methyl-1H-pyrazol-4-yl)amino)pyrimidin-4-yl)amino)-4-fluorophenyl)-4-fluorobut-2-enamide] | 136 | 224 | 347 | 1620 | –
7 | C=CC(=O)Nc1ccc(F)c(Nc2nc(Nc3cnn(C)c3)ncc2-c2cc(OC)ccc2Cl)c1 [Compound 8, N-(3-((5-(2-chloro-5-methoxyphenyl)-2-((1-methyl-1H-pyrazol-4-yl)amino)pyrimidin-4-yl)amino)-4-fluorophenyl)acrylamide] | 1590 | 749 | > 10000 | 644 | –
8 | C=CC(=O)Nc1ccc(F)c(Nc2nc(Nc3cnn(C)c3)ncc2-c2cc(F)c(F)c(OC)c2)c1 [Compound 126, N-(3-((5-(3,4-difluoro-5-methoxyphenyl)-2-((1-methyl-1H-pyrazol-4-yl)amino)pyrimidin-4-yl)amino)-4-fluorophenyl)acrylamide] | 40 | 100 | 43 | 153 | –
9 | [2H]C([2H])([2H])Oc1cc(F)cc(-c2cnc(Nc3cnn(C)c3)nc2Nc2cc(NC(=O)C=C)ccc2F)c1 [Compound 165, N-(4-fluoro-3-((5-(3-fluoro-5-(methoxy-d3)phenyl)-2-((1-methyl-1H-pyrazol-4-yl)amino)pyrimidin-4-yl)amino)phenyl)acrylamide] | 70 | 110 | 387 | 208 | –
10 | C=CC(=O)Nc1ccc(F)c(Nc2nc(Nc3cnn(C)c3)ncc2-c2cc(F)c(Br)c(F)c2)c1 [Compound 91, N-(3-((5-(4-bromo-3,5-difluorophenyl)-2-((1-methyl-1H-pyrazol-4-yl)amino)pyrimidin-4-yl)amino)-4-fluorophenyl)acrylamide] | 15 | 31 | 11 | 59 | –
11 | C=CC(=O)Nc1ccc(F)c(Nc2nc(Nc3cn(C)nc3Cl)ncc2-c2cc(F)cc(OC)c2)c1 [Compound 106, N-(3-((2-((3-chloro-1-methyl-1H-pyrazol-4-yl)amino)-5-(3-fluoro-5-methoxyphenyl)pyrimidin-4-yl)amino)-4-fluorophenyl)acrylamide] | 285 | 35 | 125 | 568 | –

Continued by falling GI50 [1], values first:

Row | GI50 [1] [nM] | GI50 [2] [nM] | IC50 (A431 cells; Homo sapiens, A-431, 72 h) [nM] | GI50 [3] [nM] | IC50 (A431 cells) [nM] | SMILES
12 | 217 | 140 | – | 62 | 759 | CN(C)C/C=C/C(=O)Nc1ccc(F)c(Nc2nc(Nc3cnn(C)c3)ncc2-c2cc(F)cc(F)c2)c1 [Compound 161, (E)-N-(3-((5-(3,5-difluorophenyl)-2-((1-methyl-1H-pyrazol-4-yl)amino)pyrimidin-4-yl)amino)-4-fluorophenyl)-4-(dimethylamino)but-2-enamide]
13 | 129 | 663 | 85 | 125 | – | CN(C)C/C=C/C(=O)Nc1ccc(F)c(Nc2nc(Nc3cnn(C)c3)ncc2-c2ccc(Br)c(F)c2)c1 [Compound 105, (E)-N-(3-((5-(4-bromo-3-fluorophenyl)-2-((1-methyl-1H-pyrazol-4-yl)amino)pyrimidin-4-yl)amino)-4-fluorophenyl)-4-(dimethylamino)but-2-enamide]
14 | 84 | 234 | 512 | 142 | – | [2H]C([2H])([2H])n1cc(Nc2ncc(-c3cc(F)cc(F)c3)c(Nc3cc(NC(=O)/C=C/CN(C)C)ccc3F)n2)cn1 [Compound 167, (E)-N-(3-((5-(3,5-difluorophenyl)-2-((1-(methyl-d3)-1H-pyrazol-4-yl)amino)pyrimidin-4-yl)amino)-4-fluorophenyl)-4-(dimethylamino)but-2-enamide]
15 | 75 | 299 | 613 | 555 | – | Cn1cc(Nc2ncc(-c3ccc(Br)c(F)c3)c(Nc3cc(NC(=O)/C=C/CN4CCC4)ccc3F)n2)cn1 [Compound 166, (E)-4-(azetidin-1-yl)-N-(3-((5-(4-bromo-3-fluorophenyl)-2-((1-methyl-1H-pyrazol-4-yl)amino)pyrimidin-4-yl)amino)-4-fluorophenyl)but-2-enamide]
16 | 39 | 96 | 23 | 243 | – | C=CC(=O)Nc1ccc(F)c(Nc2nc(Nc3cn(C)nc3Cl)ncc2-c2cc(F)cc(C(F)F)c2)c1 [Compound 108, N-(3-((2-((3-chloro-1-methyl-1H-pyrazol-4-yl)amino)-5-(3-(difluoromethyl)-5-fluorophenyl)pyrimidin-4-yl)amino)-4-fluorophenyl)acrylamide]
17 | 24 | 15 | 52 | 36 | – | C=CC(=O)Nc1ccc(F)c(Nc2nc(Nc3cnn(C)c3)ncc2-c2cnc(Cl)c(C(F)(F)F)c2)c1 [Compound 44, N-(3-((5-(6-chloro-5-(trifluoromethyl)pyridin-3-yl)-2-((1-methyl-1H-pyrazol-4-yl)amino)pyrimidin-4-yl)amino)-4-fluorophenyl)acrylamidet]
18 | 16 | 25 | 13 | 167 | – | C=CC(=O)Nc1ccc(F)c(Nc2nc(Nc3cnn(C)c3)ncc2-c2cc(F)c(F)c(C(F)F)c2)c1 [Compound 141, N-(3-((5-(3-(difluoromethyl)-4,5-difluorophenyl)-2-((1-methyl-1H-pyrazol-4-yl)amino)pyrimidin-4-yl)amino)-4-fluorophenyl)acrylamide]
19 | 13 | 24 | 12 | 62 | – | C=CC(=O)Nc1cc(F)cc(Nc2nc(Nc3cnn(C)c3)ncc2-c2ccc(Br)c(F)c2)c1 [Compound 97, N-(3-((5-(4-bromo-3-fluorophenyl)-2-((1-methyl-1H-pyrazol-4-yl)amino)pyrimidin-4-yl)amino)-5-fluorophenyl)acrylamide]
20 | 13 | 34 | 1080 | 98 | – | C=CC(=O)Nc1cccc(Nc2nc(Nc3cnn(C)c3)ncc2-c2cc(F)c(C(F)(F)F)c(F)c2)c1 [Compound 153, N-(3-((5-(3,5-difluoro-4-(trifluoromethyl)phenyl)-2-((1-methyl-1H-pyrazol-4-yl)amino)pyrimidin-4-yl)amino)phenyl)acrylamide]
21 | 11 | 21 | 6 | 49 | – | C=CC(=O)Nc1cccc(Nc2nc(Nc3cnn(C)c3)ncc2-c2ccc(OC(F)F)c(F)c2)c1 [Compound 124, N-(3-((5-(4-(difluoromethoxy)-3-fluorophenyl)-2-((1-methyl-1H-pyrazol-4-yl)amino)pyrimidin-4-yl)amino)phenyl)acrylamide]
